Experimental data as given in patent US5530126A, “Process for the preparation of substituted 6-(pyrazol-3yl)-1,4-benzoxazin-3-ones” (Monsanto Company, priority 1994, dated 1996).

Assays:
Format in all cases: in vivo
[1] = test system: Barnyardgrass; assay: Post-emergence herbicide test; conditions: Echinochloa crus-galli, read-out: % plant inhibition (Bygr); for inhibition at 11210 g/ha: 11.21 kg/ha; for inhibition at 1120 g/ha: 1.12 kg/ha
Summary of the method: (§1)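 Greenhouse-raised seedlings and perennial propagule shoots, aged 2–3 weeks, receive an atomized spray at 10 psig. The solution or suspension carries roughly 0.4% emulsifier and is applied at 200 gallons/acre; injury is rated as % inhibition after about 11 days.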

[2] = test system: Indian Mustard; assay: Post-emergence herbicide test; conditions: Brassica juncea, read-out: % plant inhibition (Inmu); for inhibition at 11210 g/ha: 11.21 kg/ha; for inhibition at 1120 g/ha: 1.12 kg/ha
Summary of the method: as §1

[3] = test system: Wild buckwheat; assay: Post-emergence herbicide test; conditions: Fallopia convolvulus, read-out: % plant inhibition (Wibw); for inhibition at 11210 g/ha: 11.21 kg/ha; for inhibition at 1120 g/ha: 1.12 kg/ha
Summary of the method: as §1

[4] = test system: Annual bluegrass; assay: Post-emergence herbicide test; conditions: read-out: % plant inhibition (Anbg); for inhibition at 11210 g/ha: 11.21 kg/ha; for inhibition at 1120 g/ha: 1.12 kg/ha
Summary of the method: as §1

[5] = test system: Seedling johnsongrass; assay: Post-emergence herbicide test; conditions: Sorghum halepense, read-out: % plant inhibition (Sejg); for inhibition at 11210 g/ha: 11.21 kg/ha; for inhibition at 1120 g/ha: 1.12 kg/ha
Summary of the method: as §1

[6] = test system: Velvetleaf; assay: Post-emergence herbicide test; conditions: Abutilon theophrasti, read-out: % plant inhibition (Vele); for inhibition at 11210 g/ha: 11.21 kg/ha; for inhibition at 1120 g/ha: 1.12 kg/ha
Summary of the method: as §1

[7] = test system: Cocklebur; assay: Post-emergence herbicide test; conditions: Xanthium strumarium, read-out: % plant inhibition (Cobu); for inhibition at 11210 g/ha: 11.21 kg/ha; for inhibition at 1120 g/ha: 1.12 kg/ha
Summary of the method: as §1

[8] = test system: Morningglory; assay: Post-emergence herbicide test; conditions: Ipomoea, read-out: % plant inhibition (Mogl); for inhibition at 11210 g/ha: 11.21 kg/ha; for inhibition at 1120 g/ha: 1.12 kg/ha
Summary of the method: as §1

[9] = test system: Downy Brome; assay: Post-emergence herbicide test; conditions: Bromus tectorum, read-out: % plant inhibition (Dobr); for inhibition at 11210 g/ha: 11.21 kg/ha; for inhibition at 1120 g/ha: 1.12 kg/ha
Summary of the method: as §1

[10] = test system: Yellow nutsedge; assay: Post-emergence herbicide test; conditions: Cyperus, read-out: % plant inhibition (Yens); for inhibition at 11210 g/ha: 11.21 kg/ha; for inhibition at 1120 g/ha: 1.12 kg/ha
Summary of the method: as §1

[11] = test system: Barnyardgrass; assay: Pre-emergence herbicide test; conditions: Echinochloa crus-galli, read-out: % plant inhibition (Bygr); for inhibition at 11210 g/ha: 11.21 kg/ha; for inhibition at 1120 g/ha: 1.12 kg/ha
Summary of the method: (§2)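 Pre-emergence soil application: compound in acetone or water carrier sprayed onto seeded topsoil surface, overlaid with untreated soil. Pans kept on greenhouse bench, watered from below. Read-out % inhibition, ~11 days post-treatment.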

[12] = test system: Indian Mustard; assay: Pre-emergence herbicide test; conditions: Brassica juncea, read-out: % plant inhibition (Inmu); for inhibition at 11210 g/ha: 11.21 kg/ha; for inhibition at 1120 g/ha: 1.12 kg/ha
Summary of the method: as §2

[13] = test system: Wild buckwheat; assay: Pre-emergence herbicide test; conditions: Fallopia convolvulus, read-out: % plant inhibition (Wibw); for inhibition at 11210 g/ha: 11.21 kg/ha; for inhibition at 1120 g/ha: 1.12 kg/ha
Summary of the method: as §2

[14] = test system: Annual bluegrass; assay: Pre-emergence herbicide test; conditions: read-out: % plant inhibition (Anbg); for inhibition at 11210 g/ha: 11.21 kg/ha; for inhibition at 1120 g/ha: 1.12 kg/ha
Summary of the method: as §2

[15] = test system: Seedling johnsongrass; assay: Pre-emergence herbicide test; conditions: Sorghum halepense, read-out: % plant inhibition (Sejg); for inhibition at 11210 g/ha: 11.21 kg/ha; for inhibition at 1120 g/ha: 1.12 kg/ha
Summary of the method: as §2

[16] = test system: Velvetleaf; assay: Pre-emergence herbicide test; conditions: Abutilon theophrasti, read-out: % plant inhibition (Vele); for inhibition at 11210 g/ha: 11.21 kg/ha; for inhibition at 1120 g/ha: 1.12 kg/ha
Summary of the method: as §2

[17] = test system: Cocklebur; assay: Pre-emergence herbicide test; conditions: Xanthium strumarium, read-out: % plant inhibition (Cobu); for inhibition at 11210 g/ha: 11.21 kg/ha; for inhibition at 1120 g/ha: 1.12 kg/ha
Summary of the method: as §2

[18] = test system: Morningglory; assay: Pre-emergence herbicide test; conditions: Ipomoea, read-out: % plant inhibition (Mogl); for inhibition at 11210 g/ha: 11.21 kg/ha; for inhibition at 1120 g/ha: 1.12 kg/ha
Summary of the method: as §2

[19] = test system: Downy Brome; assay: Pre-emergence herbicide test; conditions: Bromus tectorum, read-out: % plant inhibition (Dobr); for inhibition at 11210 g/ha: 11.21 kg/ha; for inhibition at 1120 g/ha: 1.12 kg/ha
Summary of the method: as §2

[20] = test system: Yellow nutsedge; assay: Pre-emergence herbicide test; conditions: Cyperus, read-out: % plant inhibition (Yens); for inhibition at 11210 g/ha: 11.21 kg/ha; for inhibition at 1120 g/ha: 1.12 kg/ha
Summary of the method: as §2

SMILES | inhibition at 11210 g/ha [1] | inhibition at 11210 g/ha [2] | inhibition at 11210 g/ha [3] | inhibition at 11210 g/ha [4] | inhibition at 11210 g/ha [5] | inhibition at 11210 g/ha [6] | inhibition at 11210 g/ha [7] | inhibition at 11210 g/ha [8] | inhibition at 11210 g/ha [9] | inhibition at 11210 g/ha [10] | inhibition at 11210 g/ha [11] | inhibition at 11210 g/ha [12] | inhibition at 11210 g/ha [13] | inhibition at 11210 g/ha [14] | inhibition at 11210 g/ha [15] | inhibition at 11210 g/ha [16] | inhibition at 11210 g/ha [17] | inhibition at 11210 g/ha [18] | inhibition at 11210 g/ha [19] | inhibition at 11210 g/ha [20] | also measured
CCS(=O)(=O)N(c1cc(-c2nn(C)c(C(F)(F)F)c2Cl)c(Cl)cc1Cl)S(=O)(=O)CC [Compound 90] | 0% | 50% | 50% | 10% | 0% | 100% | 30% | 60% | 10% | 0% | 10% | 10% | 30% | 10% | 50% | 20% | 0% | 10% | 10% | 0% | –
Cn1nc(-c2cc(N3CCOCC3)c(Cl)cc2F)c(Cl)c1C(F)(F)F [Compound 99] | 100% | 100% | 100% | 100% | 100% | 100% | 90% | 100% | 90% | 10% | 90% | 100% | 100% | 80% | 90% | 100% | 80% | 90% | 100% | 30% | –
Cn1nc(-c2cc(C=NOCC(=O)O)c(Cl)cc2F)c(Cl)c1C(F)(F)F [Compound 130, ((((2-chloro-5-(4-chloro-1-methyl-5-(trifluoromethyl)-1H-pyrazol-3-yl)-4-fluorophenyl)methylene)amino)oxy)acetic acid] | – | – | – | – | – | – | – | – | – | – | – | – | – | – | – | – | – | – | – | – | inhibition at 1120 g/ha [1]: 40%; inhibition at 1120 g/ha [2]: 40%; inhibition at 1120 g/ha [3]: 100%; inhibition at 1120 g/ha [4]: 20%; inhibition at 1120 g/ha [5]: 70%; inhibition at 1120 g/ha [6]: 100%; inhibition at 1120 g/ha [7]: 100%; inhibition at 1120 g/ha [8]: 100%; inhibition at 1120 g/ha [9]: 30%; inhibition at 1120 g/ha [10]: 20%; inhibition at 1120 g/ha [11]: 30%; inhibition at 1120 g/ha [12]: 100%; inhibition at 1120 g/ha [13]: 90%; inhibition at 1120 g/ha [14]: 0%; inhibition at 1120 g/ha [15]: 70%; inhibition at 1120 g/ha [16]: 100%; inhibition at 1120 g/ha [17]: 90%; inhibition at 1120 g/ha [18]: 100%; inhibition at 1120 g/ha [19]: 30%; inhibition at 1120 g/ha [20]: 20%
COCOc1cc(-c2nn(C)c(C(F)(F)F)c2Cl)c(F)cc1Cl [Compound 308, 4-Chloro-3-(4-chloro-2-fluoro-5-(methoxy-methoxy)phenyl)-1-methyl-5-(trifluoromethyl)-1H-pyrazole] | – | – | – | – | – | – | – | – | – | – | – | – | – | – | – | – | – | – | – | – | inhibition at 1120 g/ha [1]: 100%; inhibition at 1120 g/ha [2]: 90%; inhibition at 1120 g/ha [3]: 100%; inhibition at 1120 g/ha [4]: 100%; inhibition at 1120 g/ha [5]: 100%; inhibition at 1120 g/ha [6]: 100%; inhibition at 1120 g/ha [7]: 90%; inhibition at 1120 g/ha [8]: 90%; inhibition at 1120 g/ha [9]: 100%; inhibition at 1120 g/ha [10]: 20%; inhibition at 1120 g/ha [11]: 100%; inhibition at 1120 g/ha [12]: 100%; inhibition at 1120 g/ha [13]: 100%; inhibition at 1120 g/ha [14]: 100%; inhibition at 1120 g/ha [15]: 100%; inhibition at 1120 g/ha [16]: 100%; inhibition at 1120 g/ha [17]: 80%; inhibition at 1120 g/ha [18]: 100%; inhibition at 1120 g/ha [19]: 100%; inhibition at 1120 g/ha [20]: 40%
